The values below come from patent US20220079962A1, “NUTRITIONAL COMPOSITION COMPRISING 2'FUCOSYLLACTOSE AND DIETARY BUTYRATE” (N.V. Nutricia, priority 2019, published 2022).

In experiment [1] the test system is human peripheral blood mononuclear cells (PBMC). As to the kind of experiment: PBMC cytokine levels, unstimulated condition. Format: cell-based. As to conditions: for Relative CCL 20, observed: 0.1 w/v % 3′-GL. The text has this: Isolation of PBMC from healthy donors: Human peripheral blood mononuclear cells (PBMC) from healthy donors were isolated from buffy coats (Sanquin, Amsterdam, the Netherlands). PBMC were obtained by centrifugation using Leucosep tubes (Greiner Bio-One). […] After lysis, the PBMC were resuspended in freezing medium (70% RPMI 1640 medium (Gibco, Thermo Fisher Technologies) supplemented with 10% heat-inactivated FCS and 100 U/ml penicillin-streptomycin, 20% heat-inactivated FCS and 10% DMSO (Sigma)) and cryopreserved. PBMC activation model: PBMC (0.2.10^6 cell/well) were cultured in 96-well flat bottom plates (Corning). For 24 hours the cells were pre-incubated with 2'-FL (Jennewein), 3'-GL (0-0.3% w/v; […] Sigma Aldrich) and combinations thereof. Subsequently, the cells were CD3/CD28-activated (Pelicluster CD3 and Pelicluster CD28, Sanquin) for an additional 24 hours. After incubation, IFNγ was measured by ELISA in the supernatants (see below). […] Roche) and/or 10% Triton (5 μl; negative control). […] Cytokine production of PBMC: PBMC were incubated with indicated reagents. After incubation, the supernatants were collected and IL2, IL6, IL10, IL13, IL21, TNFα, IFNγ, MIF, CCL1, CCL13, CCL17, CCL20, CCL22 and CXCL8-11 levels were measured by conducting a validated multiplex immunoassay based on Luminex technology (xMAP, Luminex Austin Tex. USA). Acquisition was conducted with the Biorad […] (Biorad laboratories, Hercules USA) in combination with xPONENT software version 4.2 (Luminex). Data was analyzed by 5-parametric curve fitting using Bio-Plex Manager software, version 6.1.1 (Biorad). After PBMC stimulation, cell culture supernatants were collected, after which cytokine responses were measured in order to test immune responsiveness of the cells. The levels of cytokines measured in stimulated conditions were corrected for the (low) levels of the cytokines measured in non-stimulated conditions. In addition, since each donor is reacting in its own efficiency onto the T cell stimulus, we calculated the individual index of cytokine response by dividing the intervention induced response by the basal stimulated response.

Experiment [2] shares this test system. As to the kind of experiment: PBMC cell activity (WST-1). It counts as cell-based. As to conditions: after 24 h. On the procedure:
PBMC activation model: PBMC (0.2.10^6 cell/well) were cultured in 96-well flat bottom plates (Corning). For 24 hours the cells were pre-incubated with 2′-FL (Jennewein), 3′-GL (0-0.3% w/v; […] Sigma Aldrich) and combinations thereof. Subsequently, the cells were CD3/CD28-activated (Pelicluster CD3 and Pelicluster CD28, Sanquin) for an additional 24 hours. After incubation, IFNγ was measured by ELISA in the supernatants (see below). […] Roche) and/or 10% Triton (5 μl; negative control).
A general note: Tetrazolium assays rely on reduction of a dye to a coloured formazan, in cell work by metabolically active cells.

The subject of experiment [3] is fecal slurry microbiota of breast fed infants. As to the kind of experiment: Anaerobic fermentation of infant fecal slurry (BioLector Pro), acidification. On the set-up: species or system human. The conditions noted are these: no pathogen spiking. On the procedure: Anaerobic fermentation of fecal slurry samples was tested in a BioLector Pro microfluidics mini multifermentor. Fecal slurry samples were collected from breast fed infants and from formula fed infants. These fecal slurry samples were processed by adding 0.6 grams feces in 40 ml Baby Reichardt V.6 medium+mucus+Ammonium sulfate+lactate and acetate. The resulting solutions were inserted to the BioLector Pro microfluidics mini multifermentor. The test legs were supplemented with 3-GL, 2′-FL, 3-GL+2′-FL, and GOS/FOS. The control leg was supplemented with sterile water.
After fermentation the fermented solutions were tested for SCFA content (in particular acetic acid, propionic acid, butyric acid and isobutyric acid), ammonia content, lactate content and pathogen concentration. Also DNA-isolation+identification and 16s sequencing was performed to determine the composition of the microbiota.
A 32 well plate that can handle low pH was used. […]
The experiment was started, and pH setpoint was either 5.5 (facial inoculum from infant 1, vaginally born, breast fed) or pH 6.0 (Inoculum from infant 2, vaginally born, breast fed) with continuous pH regulation, and temperature 37° C., humidity 85%, OD control. […] For both inocula the extent of fermentation, as measured by NaOH consumption, i.e. acid production, was highest with the combination of 3′-GU2′-FL, when compared to 3′-GL or 2′-FL alone. […]

Another experiment concerns Bifidobacteria. As to the kind of experiment: Fecal slurry fermentation, CFU of total Bifidobacteria. As for the experimental part: A 32 well plate that can handle low pH was used. The wells of this plate were filled with fecal solution. 2.5% (w/v) of the different sterile carbohydrate solutions (3′-GL, 2′-FL, 2′-FL/3′-GL (2.0+0.5%). and Glucose were added to the fecal slurry according to a template.
The experiment was started, and pH setpoint was either 5.5 (facial inoculum from infant 1, vaginally born, breast fed) or pH 6.0 (Inoculum from infant 2, vaginally born, breast fed) with continuous pH regulation, and temperature 37° C., humidity 85%, OD control. At 4, 8 and 24 hours a sample is taken for CFU determination on TOS-propionate MUP agar (total Bifidobacteria), XLD agar for Salmonella enteriditis S29, and Simons citrate inositol agar for Klebsiella pneumonia K2 and for SCFA, D- and L Lactate and ammonia analysis. Fecal pellet was used for 16s DNA sequencing. For both inocula the extent of fermentation, as measured by NaOH consumption, i.e. acid production, was highest with the combination of 3′-GU2′-FL, when compared to 3′-GL or 2′-FL alone. The rate of initial acidification was high for 3′-GL and for 3′-GL/2′-FL. […] As the amount of carbohydrates that can be fermented is the same in the reaction vessels, the higher total acidification with the combination is indicative for an unexpected, synergistic effect of the combination of 2′-FL and 3′-GL. The SCFA that were produced was for the largest part acetic acid. Also L-lactic acid was produced.

Setting [4] is: unstimulated, relative to blanc (=1), 0.2% w/v 2′-FL, 0.2 mM butyrate, mean.

Take “Gal (beta 1-3)-Gal (beta 1-4)-Glc [3′-GL]”: the “CCL20 level compared to blanc control” value in experiment [1] (unstimulated) is “did not have a statistically significant effect”. Also, in experiment [1] (setting [4]), the “Relative CCL 20, observed” value worked out at 1.164. Further, in experiment [2], the “Immune cell activity as measured by WST” value was “decrease in activation”. Besides, the “rate of initial acidification” value in experiment [3] is reported as “high”. Also, the “Growth of bifidobacteria” value in the experiment with Bifidobacteria is recorded as “Growth of bifidobacteria was observed”. In addition, the “effect on bifidobacteria” value in the experiment with Bifidobacteria (inoculum of baby 2) is on record as “highest”.

`C[C@@H]1O[C@@H](O[C@H]2[C@H](O[C@H]3[C@H](O)[C@@H](O)C(O)O[C@@H]3CO)O[C@H](CO)[C@H](O)[C@@H]2O)[C@@H](O)[C@H](O)[C@@H]1O` (stereo partly drawn) [2′-FL, α-L-Fuc-(1→2)-β-D-Gal-(1→4)-D-Glc]: the “IL10 level compared to blanc control” value in experiment [1] (0.2% 2′-FL, 0.2 mM butyrate) is given as “significantly (p<0.05) increased level of IL10”. In experiment [1] (unstimulated), the “CCL20 level compared to blanc control” value is “increased level of CCL20”. Further, the “Relative IL10 level, observed” value in experiment [1] (unstimulated, relative to blanc (=1), 0.2% w/v 2′-FL, 0.2 mM butyrate, mean, 10 donors) came to 3.361. In addition, the “Relative CCL 20, observed” value in experiment [1] (setting [4]) was 2.586. Moreover, in experiment [2], the “Immune cell activity as measured by WST” value is on record as “significantly increased”. Further, the “extent of fermentation, as measured by NaOH consumption, i.e. acid production” value in experiment [3] (both inocula, 2.5% (w/v) carbohydrate) is “slower and lower acidification”. In addition, the “Growth of bifidobacteria” value with Bifidobacteria is given as “Growth of bifidobacteria was observed”.
